These are literature values, as cited in patent publication US10300299B2, “Advanced methods and systems for treating cell proliferation disorders” (priority 2008, dated 2019).

One data set relates to rapidly dividing tissue. Conditions: in vivo.
Test in data set [1]: not given
The source holds these as a separate data set.

Test in data set [2]: not given
This is another data set of the same source.

As to `Oc1cccc(-c2c3nc(c(-c4cccc(O)c4)c4ccc([nH]4)c(-c4cccc(O)c4)c4nc(c(-c5cccc(O)c5)c5ccc2[nH]5)CC4)C=C3)c1` [Foscan, Tetra (m-hydroxyphenyl) chlorin], the “duration of skin photosensitivity” value is on record as “approximately 2 weeks”. Moreover, the Length of photosensitization (Table 3, known photosensitizers) was 2 weeks. As for `C/C1=C2/[N-][C@H]([C@H](CC(N)=O)[C@@]2(C)CCC(=O)NC[C@@H](C)OP(=O)([O-])O[C@H]2[C@@H](O)[C@@H](n3cnc4cc(C)c(C)cc43)O[C@@H]2CO)[C@]2(C)N=C(/C(C)=C3N=C(/C=C4N=C1[C@@H](CCC(N)=O)C\4(C)C)[C@@H](CCC(N)=O)[C@]\3(C)CC(N)=O)[C@@H](CCC(N)=O)[C@]2(C)CC(N)=O.[CH3-].[Co+3]` [methylcobalamin], the “uptake in rapidly dividing tissue” value in the data set on rapidly dividing tissue is on record as “increased uptake”. Turning to Cobalt-57-cyanocobalamin, in the data set on rapidly dividing tissue, the “uptake in rapidly dividing tissue” value is “increased uptake”. As for Vitamin B12, the water solubility entry in data set [1] is recorded as “water soluble”. In data set [2] (in excess), the excretion result is recorded as “excreted by gloinerular filtration”. Besides, the toxicity entry in data set [2] (in vivo) is on record as “no known toxicity”.
